Data reported in PubChem BioAssay (NCI).
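GI50 is the concentration that inhibits growth by half. TGI: total growth inhibition.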

Key:
Experiment in all cases: DTP human tumour cell line panel, 384-well format
T-47D breast = tested on: T-47D breast
HOP-62 NSCLC = tested on: HOP-62 NSCLC
SNB-19 CNS = tested on: SNB-19 CNS
OVCAR-3 ovarian = tested on: OVCAR-3 ovarian
MOLT-4 leukemia = tested on: MOLT-4 leukemia
CCRF-CEM leukemia = tested on: CCRF-CEM leukemia
SK-OV-3 ovarian = tested on: SK-OV-3 ovarian
HT29 colon = tested on: HT29 colon
OVCAR-8 ovarian = tested on: OVCAR-8 ovarian
EKVX NSCLC = tested on: EKVX NSCLC
UACC-257 melanoma = tested on: UACC-257 melanoma
MDA-MB-435 melanoma = tested on: MDA-MB-435 melanoma
HCC-2998 colon = tested on: HCC-2998 colon

Q: `CC(C)(O)C1CCC(Nc2ccc3ncc(-c4cccc(C(F)(F)F)c4)n3n2)CC1` (stereo unspecified) was tested. Which GI50 (T-47D breast) did it give?
A: 540 nM

Q: And the TGI (T-47D breast)?
A: 2120 nM

Q: And the GI50 (HOP-62 NSCLC)?
A: 1510 nM

Q: What about the TGI (HOP-62 NSCLC) of the same molecule?
A: 3600 nM

Q: And the GI50 (SNB-19 CNS)?
A: 1900 nM

Q: What about the TGI (SNB-19 CNS) of the same molecule?
A: 5500 nM

Q: What about the GI50 (OVCAR-3 ovarian) of the same molecule?
A: 1950 nM

Q: What about the TGI (OVCAR-3 ovarian) of the same molecule?
A: 6190 nM

Q: And the GI50 (MOLT-4 leukemia)?
A: 559 nM

Q: And the TGI (MOLT-4 leukemia)?
A: 1860 nM

Q: What about the GI50 (CCRF-CEM leukemia) of the same molecule?
A: 367 nM

Q: And the TGI (CCRF-CEM leukemia)?
A: 1560 nM

Q: What about the GI50 (SK-OV-3 ovarian) of the same molecule?
A: 1120 nM

Q: What about the TGI (SK-OV-3 ovarian) of the same molecule?
A: 2890 nM

Q: And the GI50 (HT29 colon)?
A: 1310 nM

Q: And the TGI (HT29 colon)?
A: 3050 nM

Q: And the GI50 (OVCAR-8 ovarian)?
A: 1770 nM

Q: And the TGI (OVCAR-8 ovarian)?
A: 4710 nM

Q: What about the GI50 (EKVX NSCLC) of the same molecule?
A: 1670 nM

Q: What about the TGI (EKVX NSCLC) of the same molecule?
A: 5660 nM

Q: What about the GI50 (UACC-257 melanoma) of the same molecule?
A: 1550 nM

Q: And the TGI (UACC-257 melanoma)?
A: 3080 nM

Q: What about the GI50 (MDA-MB-435 melanoma) of the same molecule?
A: 1530 nM

Q: What about the TGI (MDA-MB-435 melanoma) of the same molecule?
A: 4170 nM

Q: And the GI50 (HCC-2998 colon)?
A: 1220 nM

Q: And the TGI (HCC-2998 colon)?
A: 2750 nM
